Data on 7 compounds can be found in patent US20080234355A1, “DNA METHYL TRANSFERASE INHIBITORS CONTAINING A ZINC BINDING MOIETY” (priority 2006, published 2008).

One data set relates to HDAC. Nature of the data set: HDAC fluorimetric assay kit (AK-500, Biomol), HeLa nuclear extract. It counts as biochemical. Conditions: Fluor de Lys substrate, 1 hour reaction, read-out: HDAC IC50 (grade). As to the method: (a) An In Vitro Assay which Determines the Ability of a Test Compound to Inhibit HDAC Enzymatic Activity.
HDAC inhibitors were screened using an HDAC fluorimetric assay kit (AK-500, Biomol, Plymouth Meeting, Pa.). Test compounds were dissolved in dimethylsulphoxide (DMSO) to give a 20 mM working stock concentration. Fluorescence was measured on a WALLAC Victor 2 plate reader and reported as relative fluorescence units (RFU). Data were plotted using GraphPad Prism (v4.0a) and IC50's calculated using a sigmoidal dose response curve fitting algorithm.
Each assay was setup as follows: Defrosted all kit components and kept on ice until use. Diluted HeLa nuclear extract 1:29 in Assay Buffer (50 mM Tris/Cl, pH 8.0, 137 mM NaCl, 2.7 mM KCl, 1 mM MgCl2). Prepared dilutions of Trichostatin A (TSA, positive control) and tested compounds in assay buffer (5× of final concentration). Diluted Fluor de Lys™ Substrate in assay buffer to 100 uM (50 fold=2× final). Diluted Fluor de Lys™ developer concentrate 20-fold (e.g. 50 μl plus 950 μl Assay Buffer) in cold assay buffer. Second, diluted the 0.2 mM Trichostatin A 100-fold in the 1× Developer (e.g. 10 μl in 1 ml; final Trichostatin A concentration in the 1× Developer=2 μM; final concentration after addition to HDAC/Substrate reaction=1 μM). Added Assay buffer, diluted trichostatin A or test inhibitor to appropriate wells of the microtiter plate. Added diluted HeLa extract or other HDAC sample to all wells except for negative controls. Allowed diluted Fluor de Lys™ Substrate and the samples in the microtiter plate to equilibrate to assay temperature (e.g. 25 or 37° C. Initiated HDAC reactions by adding diluted substrate (25 μl) to each well and mixing thoroughly. Allowed HDAC reactions to proceed for 1 hour and then stopped them by addition of Fluor de Lys™ Developer (50 μl). Incubated plate at room temperature (25° C.) for 10-15 min. Read samples in a microtiter-plate reading fluorimeter capable of excitation at a wavelength in the range 350-380 nm and detection of emitted light in the range 440-460 nm.

Data set [1] deals with ER mRNA expression in human ER-negative breast cancer cell lines. Conditions: cited from earlier work.
Data set [2] relates to gelatinase A (MMP2; Type IV collagenase). Conditions: 3T3 cells; cited from earlier work.

Regarding `Nc1ccc(C(=O)NCCNCCC(=O)NO)cc1` [Compound 25], in the data set with HDAC, the IC50 (commonly the concentration that inhibits the measured activity by half) is greater than 10 µM.
On to `Nc1ccc(C(=O)NCCNCCC(=O)CCC(=O)NO)cc1` [Compound 28], for which the IC50 in the data set on HDAC is greater than 10 µM.
In the case of `Nc1ccc(C(=O)NCCNC(=O)CCCC(=O)NO)cc1` [Compound 29, N-hydroxy-4-(2-(4-aminobenzamido)-ethylcarbamoyl)butanamide], the melting point (commonly the temperature of the solid-liquid transition) was in the range of 158.9 to 159.8 °C. For the same compound, the IC50 in the data set with HDAC lay in the range of 0.1 to 1 µM.
Regarding `Nc1ccc(C(=O)NCCNC(=O)CCCCC(=O)NO)cc1` [Compound 30], the IC50 with HDAC was 1 to 10 µM.
With `CCN(CCNC(=O)c1ccc(N)cc1)C(=O)CCC(=O)NO` [Compound 34, N^1-(2-(4-aminobenzamido)ethyl)-N^1-ethyl-N^4-hydroxysuccinamide], the IC50 in the data set on HDAC is greater than 10 µM.
On the same count and under the same terms, the result for `CCN(CCNC(=O)c1ccc(N)cc1)C(=O)CCCCC(=O)NO` [Compound 36, N^1-(2-(4-aminobenzamido)ethyl)-N^1-ethyl-N^6-hydroxyadipamide] reads 1 to 10 µM.
On to `CC(/C=C/C(=O)NO)=C\[C@@H](C)C(=O)c1ccc(N(C)C)cc1` [TSA, trichostatin A], for which the “increase in ER mRNA expression” value in data set [1] was 5 fold. The “mRNA as well as zymographic activity of gelatinase A (MMP2)” value in data set [2] was “decreases”.
